Assay: gradient 5% acetonitrile 3 min, to 50% in 2 min, to 85% in 15 min, held 3 min, 100 µL/min
Details: column: Zorbax Extend-C18 2.1 x 50 mm; eluents: water / acetonitrile, 0.1% formic acid
How it was run: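 Over 3 months, pure standards in mixtures of ~100 molecules were run by HPLC coupled to a quadrupole time-of-flight mass spectrometer in positive and negative ionization mode. The column was a Zorbax Extend-C18 (2.1 × 50 mm, 1.8 μm) at 100 μL/min, eluted with water and acetonitrile each holding 0.1% formic acid, with 40 μL dead and 900 μL dwell volumes. Retention time was determined from adduct peaks chosen by software and checked manually.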

Row | Compound | RP-LC retention time [s]
1 | Cc1noc(C)c1Cc1ccc(C(=O)N2CCC3(CCC3O)CC2)o1 (configuration not stated) | 698
2 | Cc1cccc(CN2CCN(C3CCN(C(=O)Nc4ccc5c(c4)OCCO5)CC3)C2=O)c1 | 804
3 | O=C(CC1CCCN(c2cnn(CC3CC3)c(=O)c2)C1)N1CCSCC1 (configuration not stated) | 740
4 | Cc1cccc(S(=O)(=O)N2CC3CN(C(=O)C4CCCO4)CC(C2)O3)c1 (configuration not stated) | 688
5 | CCn1cc(S(=O)(=O)N2CCC(c3noc(COCC4CC4)n3)CC2)cn1 | 841
6 | COCCN1C(=O)[C@H]2CN(Cc3cccc(C#N)c3)C[C@H]2C1=O | 607
7 | COc1ccc(CN2C[C@@H]3C(=O)N(Cc4ccc5c(c4)OCO5)C(=O)[C@@H]3C2)cc1 | 689
8 | CCCS(=O)(=O)N1CCC(Cc2nc(-c3ccncc3)n[nH]2)C1 (configuration not stated) | 576
9 | Cn1cnnc1SCCNC(=O)C1CN(c2nc3ccccc3s2)C1 | 573
10 | COc1cccc(NC(=O)C2CCN(S(=O)(=O)c3ccc4c(c3)CCCC(=O)N4)CC2)c1 | 755
11 | CCC(C)C(NC(=O)c1cccs1)C(=O)Nc1nc2ccccc2[nH]1 (configuration not stated) | 692
12 | Cc1nc2ccccc2nc1N1CCCC1 | 680
13 | O=C(NCCn1cc(SCC(=O)N2CCOCC2)c2ccccc21)c1ccc(F)cc1 | 733
14 | C=CCN(CC=C)S(=O)(=O)c1ccc(C(=O)N2CCCc3ccccc32)cc1 | 985
15 | CC(NC(=O)c1cn(C)c2ncccc12)c1cccnc1 (configuration not stated) | 555
16 | O=C(c1ccc2c(c1)CCCN2S(=O)(=O)c1ccccc1)N1CCOCC1 | 787
17 | O=C(NC1CCCCCC1)C1CCCN(c2ncnc3c2nc2n3CCCCC2)C1 (configuration not stated) | 816
18 | O=C(Nc1cnn(-c2ncncc2N2CCOCC2)c1)C1CCCC1 | 624
19 | CC(C)CCN1C(=O)C2CCCN2C(=O)c2ccccc21 (configuration not stated) | 797
20 | O=S(=O)(c1ccc(-c2nnc(C3CCC3)o2)o1)N1CCN(C2CCCCC2)CC1 | 690
21 | O=C(Nc1ccc2c(c1)N(C(=O)c1cccs1)CCC2)c1ccccc1Br | 850
22 | CCC(C)NC(=O)CC1CCN(C(=O)c2ccc3oc(C4CC4)nc3c2)CC1 (configuration not stated) | 710
23 | Cc1ncc2c(n1)CCN(S(=O)(=O)c1ccc(Br)s1)C2 | 778
24 | O=C(Cc1ccccc1)NCCSc1c[nH]c2ccccc12 | 790
25 | COCCNC(=O)C1CCCN(S(=O)(=O)c2cc(OC)ccc2OC)C1 (configuration not stated) | 687
26 | Cc1cc(C(N)=O)c(C)n1Cc1ccc(F)cc1 | 752
27 | CCS(=O)(=O)N1CC(=O)N(c2ccc(C)c(C)c2)C(C)(C(=O)NC2CCCCCC2)C1 (configuration not stated) | 979
28 | O=C(CN1C(=O)CCCc2cc(S(=O)(=O)N3CCCCCC3)ccc21)N1CCCCCC1 | 915
29 | O=C(NCc1ccncc1)c1sc2ncccc2c1-n1cccc1 | 592
30 | CCNC(=O)C1CCCN(C(=O)c2cc(C)cc(C)c2)C1 (configuration not stated) | 718

The next lines start with the values.

Row | RP-LC retention time [s] | Compound
31 | 792 | Cc1ccc(Nc2c(-c3ccc(N(C)C)cc3)nc3ncccn23)cc1C
32 | 972 | COc1ccccc1-n1nnc(C(=O)OCc2nc(-c3ccccc3)oc2C)c1C
33 | 766 | COc1ccc(OC)c(S(=O)(=O)Nc2ccc(Oc3nc4ccccc4n4cnnc34)cc2)c1
34 | 915 | Cc1cc(-c2nnc(C3CCC3)o2)c(C)n1CC(=O)Nc1ccc(F)c(F)c1
35 | 831 | O=C(CN1N=C(C(=O)Nc2ccc(F)cc2)CCC1=O)Nc1cc(F)ccc1F
36 | 926 | CCCc1noc(-c2ccc3nnc(CC(=O)Nc4ccc(C)cc4C)n3c2)n1
37 | 891 | CCc1noc(NC(C)=O)c1-c1ccc(OC)c(S(=O)(=O)Nc2ccc(C(C)C)cc2)c1
38 | 745 | COc1cccc(NC(=O)Cn2nc3c(N(C)C4CCCCC4)nccn3c2=O)c1
39 | 825 | Cc1nc(-c2ccc(C(=O)NC3CCCC3)cc2)cs1
40 | 1240 | c1ccc(C2(c3nc(-c4ccc(-n5cccn5)nc4)no3)CC2)cc1
41 | 590 | Cc1ccc2c(Nc3ccc(S(N)(=O)=O)cc3)c(C(=O)N3CCCCC3C)cnc2n1 (configuration not stated)
42 | 1130 | Cc1cc(C)c2nc(-c3ccccc3Br)cc(C(=O)O)c2c1
43 | 970 | O=C(CCc1csc(NC(=O)c2ccccc2)n1)Nc1nc2ccc(Cl)cc2s1
44 | 626 | CCCc1noc(-c2cccn3c(CC(=O)N4CCOCC4)nnc23)n1
45 | 832 | Cc1ccc(NC(=O)N2C[C@@H]3C[C@H](NS(=O)(=O)c4ccccc4)[C@H]2C3)c(C)c1
46 | 699 | CCCc1ccc(S(=O)(=O)N2CCN(c3nc4ccncc4n(C)c3=O)CC2)cc1
47 | 1200 | Cc1ccc(NC(=O)c2cc(C(C)C)n3nccc3n2)c(C)c1
48 | 1050 | Cc1c(-c2noc(-c3ccccc3F)n2)nnn1Cc1cccc(F)c1
49 | 777 | Cc1noc(C)c1C1CCCN1C(=O)Cc1cccc(F)c1 (configuration not stated)

Row | RP-LC retention time [s] | Compound
50 | 855 | COCCCn1c(=O)c2ccccc2n(Cc2nc(-c3cccc(C)c3)no2)c1=O
51 | 935 | Cc1ccc(S(=O)(=O)CC(=O)Nc2nc(-c3ccc4c(c3)OCCO4)cs2)cc1
52 | 662 | CCn1ncc(CN2CC(c3nc(CCOCc4ccccc4)no3)C2)c1C
53 | 829 | CCNc1cc(C)nc(N2CCN(S(=O)(=O)c3ccc(-c4ccccc4)cc3)CC2)n1
54 | 761 | Cc1ccc(-n2nc3c(N4CCCC(C(=O)NCc5ccc(F)cc5)C4)nnc(C)c3c2C)cc1 (configuration not stated)
55 | 826 | Cc1cccc(-c2nnc(C)c(N3CCc4ccccc4C3)n2)c1
56 | 855 | CCc1ccc(CNC(=O)Cn2cnc3nc4c(cc3c2=O)CC(C)CC4)cc1 (configuration not stated)
57 | 1030 | CCCN1C(=O)c2cc(S(=O)(=O)NCc3ccccc3F)ccc2Oc2cccnc21
58 | 737 | Cc1nc(C)c(C(=O)NCc2c(-c3ccccc3)nc3sc(C)nn23)s1
59 | 971 | CCOC(=O)c1noc2ncnc(NCc3cccc(OC)c3)c12
60 | 736 | Cc1noc(C)c1CCC(=O)N1CC(n2cc(COc3ccc(F)cc3)nn2)C1
61 | 848 | Cc1cc(-c2nnc(C3CC3)o2)c(C)n1CC(=O)NCc1ccc(F)c(Cl)c1
62 | 1040 | Cc1ccc(N2C(=O)C3N=NN(Cc4nc(-c5cccc(C)c5)no4)C3C2=O)cc1 (configuration not stated)
63 | 848 | CCn1cc(-c2nc(CC(=O)NC3CCCC3)cs2)c2cccnc21
64 | 680 | Cc1ccc(CNC(=O)Nc2ccc3nncn3c2)cc1
65 | 848 | COc1ccc(NC(=O)c2cn(C)nc2S(=O)(=O)N2CCSCC2)cc1
66 | 910 | CCOc1ccc(C(=O)NCCc2c[nH]c3ccc(C)cc23)cc1OCC
67 | 1110 | COc1ccc(C)cc1NC(=O)Cn1c(C)nc2c(sc3nc(-c4ccccc4)ccc32)c1=O

From the METLIN SMRT retention time set (Domingo-Almenara et al. 2019)
